Measurements reported in ChEMBL document CHEMBL5236649 (Bioorg Med Chem, 2023).

Columns and labels:
D(3) dopamine receptor = D(3) dopamine receptor (Rattus norvegicus, UniProt P19020); test: Displacement of [3H]-spiroperidol from rat D3 receptor expressed in HEK293 cells assessed as inhibition constant by Cheng-Prusoff equation analysis
D(2) dopamine receptor [1] = biological target: D(2) dopamine receptor (Homo sapiens, UniProt P14416); test: biochemical
D(2) dopamine receptor [2] = biological target: D(2) dopamine receptor (Rattus norvegicus, UniProt P61169); test: biochemical
Description: Displacement of [3H]-spiroperidol from rat D2L receptor expressed in HEK293 cells assessed as inhibition constant by Cheng-Prusoff equation analysis

SMILES | Ki (D(3) dopamine receptor) | EC50 (D(2) dopamine receptor [1]) | Ki (D(2) dopamine receptor [2])
CCCN(CC(=O)N1CCN(C(=O)CN(CCC)[C@H]2CCc3c(O)cccc3C2)CC1)[C@H]1CCc2c(O)cccc2C1 | 115 nM | – | –
CCCN(CCc1cc(O)c(CCN(CCC)[C@H]2CCc3nc(N)sc3C2)cc1O)[C@H]1CCc2nc(N)sc2C1 | 6.87 nM | 34.4 nM | –
CCCN(CCc1ccc(CCN(CCC)[C@H]2CCc3nc(N)sc3C2)cc1)[C@H]1CCc2c(O)cccc2C1 | 2.15 nM | – | 4.91 nM
CCCN(CCN1CCN(CCN(CCC)[C@H]2CCc3c(O)cccc3C2)CC1)[C@H]1CCc2c(O)cccc2C1 | 3.56 nM | – | 12 nM
CCCN(CCc1ccc(CCN(CCC)[C@H]2CCc3c(O)cccc3C2)cc1)[C@H]1CCc2c(O)cccc2C1 | 3.86 nM | – | 3.88 nM
